System: men with mild to moderate persistent asthma (lung function, FEV1)
Assay: Clinical Phase II cross-over study: FEV1 by spirometry after single inhaled doses in asthma patients
Type: in vivo, human
Settings: for Peak FEV1 / Peak FEV1 increase over baseline / Peak FEV1 increase over placebo / Trough FEV1 / Trough FEV1 increase over baseline / Trough FEV1 increase over placebo: average, compound single dose 25 mcg, salmeterol 50 mcg at 0 and 12 hours; for Peak FEV1: inhalation by dry powder inhaler; for Peak FEV1 increase over baseline / Peak FEV1 increase over placebo / Trough FEV1 / Trough FEV1 increase over baseline / Trough FEV1 increase over placebo: inhalation
Description: Clinical Phase II study: A randomised double-blind, double-dummy, placebo and active comparator-controlled, cross-over trial assesses the activity, safety, tolerability and pharmacokinetics of single doses of 5-(2-{[6-(2,2-difluoro-2-phenylethoxy)hexyl]amino}-1-(R)-hydroxyethyl)-8-hydroxyquinolin-2(1H)-one heminapadisylate by inhalation in asthma patients.
Methods: Men with a diagnosis of mild to moderate persistent asthma, as defined by the 2006 GINA guideline, for at least 6 months prior to screening and with a FEV1 61-85% of the predicted normal values (according to Quanjer et al. 1993) were randomised to treatment sequences comprising a single-dose administration of 5-(2-{[6-(2,2-difluoro-2-phenylethoxy)hexyl]amino}-1-(R)-hydroxyethyl)-8-hydroxyquinolin-2(1H)-one heminapadisylate (at a metered nominal dose of 25 micrograms in the Cyclohaler® device), two administrations (at time points 0 and 12 hours) of Salmeterol (at a metered nominal dose of 50 micrograms in the Cyclohaler® device) and placebo administered all of them by means of a dry powder inhaler. Lung function measurements included (by spirometry) FEV1, PEF, FVC, FEF25-75, and (by body plethysmography) sGaw and Raw.
Results: 25 males (aged 18 to 70) took part in the study.

[1] = 25 micrograms single inhaled dose

SMILES | average peak and trough FEV1 compared with placebo and with salmeterol [1] | increase in average trough FEV1 compared to salmeterol (two doses) [1] | Peak FEV1 [L] | Peak FEV1 increase over baseline [mL] | Peak FEV1 increase over placebo [mL] | Trough FEV1 [L] | Trough FEV1 increase over baseline [mL] | Trough FEV1 increase over placebo [mL] | FEV1 values compared with salmeterol (single dose 25 micrograms) | bronchodilation: size, duration and onset (single dose 25 micrograms)
O=c1ccc2c([C@@H](O)CNCCCCCCOCC(F)(F)c3ccccc3)ccc(O)c2[nH]1 [5-(2-{[6-(2,2-difluoro-2-phenylethoxy)hexyl]amino}-1-(R)-hydroxyethyl)-8-hydroxyquinolin-2(1H)-one] | clearly increased | statistically significant | 3.819 | 843 | 618 | 3.642 | 666 | 718 | significantly higher than those produced by salmeterol | surprisingly large, long-lasting bronchodilation, with a fast onset
OCc1cc(C(O)CNCCCCCCOCCCCc2ccccc2)ccc1O (stereo not shown) [Salmeterol, 2-(hydroxymethyl)-4-{1-hydroxy-2-[6-(4-phenylbutoxy)hexylamino]ethyl}phenol, reference compound] |  |  | 3.521 | 667 | 442 | 3.209 | 355 | 285 |  | 

Reference: patent publication US20140343097A1, “5-(2-1-HYDROXYETHYL)-8-HYDROXYQUINOLIN-2(1H)-ONE FOR THE TREATMENT OF LUNG FUNCTION” (ALMIRALL, S.A., priority 2009, published 2014)
